Assay results reported in patent US8916679B2, “Peptides binding to the dimer interface of thymidylate synthase for the treatment of cancer” (Universita′ degli Studi di Modena e Reggio Emilia, priority 2009, dated 2014).
Where no end group is shown, it is not given here.

Legend:
[1] = molecular target: T1, hTS enzyme (human Thymidylate synthase) (Homo sapiens, UniProt P04818); assay: Peptidic inhibitor Ki value determination vs dUMP and vs mTHF; assay type: biochemical; conditions: Lineweaver-Burk analysis, FIG. 4
T1 construct: made in house; host or cells: E. coli (printed as 'BL21 strain DH5α'), vector pQE80L
T1 sequence (P04818 with tags, fused parts or gaps): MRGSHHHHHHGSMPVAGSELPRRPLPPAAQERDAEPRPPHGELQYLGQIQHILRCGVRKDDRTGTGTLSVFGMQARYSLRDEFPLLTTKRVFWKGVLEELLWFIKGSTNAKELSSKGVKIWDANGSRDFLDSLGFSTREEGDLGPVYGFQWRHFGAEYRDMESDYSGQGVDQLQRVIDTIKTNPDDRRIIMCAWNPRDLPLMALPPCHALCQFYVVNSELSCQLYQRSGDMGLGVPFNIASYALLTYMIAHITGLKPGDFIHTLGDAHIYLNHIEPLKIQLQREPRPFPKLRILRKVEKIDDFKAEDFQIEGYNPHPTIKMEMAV

A2780 cells = assay: Cell growth assay (crystal violet dye); assay type: cell-based, human; conditions: 10 μM, FIG. 7
Experimental: Cultures were equilibrated with humidified 5% CO2 in air at 37° C.
Cells were seeded into 24-well plates and allowed to attach overnight. Peptides were delivered into cells by means of a peptide delivery system, following the procedures indicated by the manufacturer. On selected days, after removal of the tissue culture medium, cell growth was determined by a modification of the crystal violet dye assay. The extracted dye was proportional to cell number.

Row | Sequence | type of inhibition (kinetic data) [1] | relative activity against A2780 cells (A2780 cells)
1 | DFIHTLGD [SEQ ID NO: 1] | competitive inhibition pattern | 
2 | YVVNSELS [SEQ ID NO: 44] |  | particularly active
